Earlier results as cited in patent US20250049666A1, “LIQUID COMPOSITION HAVING ENHANCED ANTIMICROBIAL ACTIVITY” (Conopco Inc., d/b/a UNILEVER, priority 2021, published 2025).

| pKa | log P (octanol/water) | Molecule |
| --- | --- | --- |
| 4.72 |  | CCCCCCCC(=O)O [Caprylic acid] |
| acid (pKa = 3.83, log | P = 4.83) | Capryloyl salicylic acid |
